According to patent US20100196926A1, “Combined Method And Kit For The Sequential Measurement of (1) The Enzymatically Active Fraction And (2) The Total Amount Of An Enzyme” (UNIVERSITE DE LIEGE, priority 2007, published 2010):

Tested on: activated equine neutrophils
Assay: Combined SIEFED-ELISA measurement of total and active MPO released by PMA-activated equine neutrophils pre-incubated with polyphenols
Format: cell-based, horse
Conditions: for inhibition percentage on total enzyme (MPO) release / inhibition percentage on MPO activity (active fraction of MPO released): 10^-5 M, neutrophils pre-incubated 10 min at 37° C., activated 30 min with 8×10^−7 M PMA, supernatant
Description: The primary antibody(2), that captures the enzyme (MPO 1), is a rabbit IgG (3 μg/ml). Standard enzyme (MPO) or unknown sample is incubated 2 h at 37° C. After washing, the (peroxidase) activity of the enzyme (MPO) is detected by adding 100 μl of a 10 μM H2O2 solution and 40 μM of Amplex® Red (8) (10-acetyl-3,7-dihydroxyphenoxazine; from Molecular Probes) in phosphate buffer (50 mM, pH 7.5). The fluorescence is read during 30 min (at 37° C.) at 590 nm with a Fluoroskan Ascent apparatus (Labsystems). The volumes of the primary antibody(2) and the sample put in the wells, are 200 μl. Controls (blank) and dilutions of the samples are established with dilution buffer.
Enhancement of fluorescence was obtained when adding a defined concentration of nitrites ions (about 10 mM) to the Amplex® Red solution (8). The fluorescence response obtained in this SIEFED steps (part) of the combined SIEFED-ELISA bioassay is directly proportional to the enzymatically active fraction of the enzyme (equine MPO) present in the sample.
After the SIEFED detection, a washing (0.9% NaCl solution containing 0.1% tween 20) is performed before starting the ELISA part of the combined method; the immobilized antibody(2)—antigen(1) complex is incubated (2 h, 37° C.) with an excess (5 μg/ml) of guinea pig IgG, the secondary antibody (4). After washing, a third antibody (5) produced against guinea pig IgG is added. This third IgG (5) (goat IgG) is labeled with alkaline phosphatase (6) and recognizes the “sandwich” complex “primary antibody (2)—MPO(1)—secondary antibody”(4). After washing, phosphatase activity is detected by incubation (30 min, 37° C., in the darkness) with a paranitrophenyl phosphate solution (phosphatase substrate, Sigma). The reaction is stopped with NaOH and the absorbance (405 nm) is measured with a Multiscan Ascent apparatus (Labsystem). All the volumes added into the wells comprise 100 μl, except for washing (300 μl) and for the substrate solution (200 μl). Controls (blank) and dilutions of the standard enzyme (MPO) and samples were established with dilution buffer [PBS (20 mM phosphate, 137 mM NaCl and 2.7 mM KCl pH 7.4) to which 5 g/L bovine serum albumin and 0.1% tween 20 were added].
Neutrophils isolated from citrated blood of healthy horses were counted, suspended in phosphate buffer saline (PBS) at pH 7.4 and incubated 10 min at 37° C. with curcumin or THC at the final concentration of 10^−4, 10^−5 or 10^−6 M. After incubation and centrifugation (1000×g, 10 min), the neutrophils were resuspended in PBS and activated 30 min with 8×10^−7 M phorbol myristate acetate (PMA) followed by centrifugation and active and total enzyme (MPO) measurement in the supernatant by the combined SIEFED-ELISA specific bioassay. The effects of polyphenols on total and active fraction of enzyme (MPO) released by stimulated neutrophils were studied by pre-incubation of neutrophils with the drugs at various concentrations, before the neutrophil stimulation.

| Compound | inhibition percentage on total enzyme (MPO) release (ELISA part) [%] | inhibition percentage on MPO activity (active fraction of MPO released) (SIEFED part) [%] | effect on the total enzyme (MPO) released by activated neutrophils (10^−4, 10^−5 or 10^−6 M, PMA-activated equine neutrophils, ELISA part) | effect on the active fraction of the enzyme (MPO) released by activated neutrophils (10^−4, 10^−5 or 10^−6 M, PMA-activated equine neutrophils, SIEFED part) |
| --- | --- | --- | --- | --- |
| COc1cc(/C=C/C(=O)CC(=O)/C=C/c2ccc(O)c(OC)c2)ccc1O [curcumin, Curcumin] | 44 | 60 | dose dependent inhibitory effects | dose dependent inhibitory effects |
| COc1cc(CCC(=O)CC(=O)CCc2ccc(O)c(OC)c2)ccc1O [THC, Tetrahydrocurcumin] | 18 | 22 | – | – |
